Test results taken from patent US7678810B2, “Thiazole derivative” (Taisho Pharmaceutical Co., Ltd, priority 2004, dated 2010).
Counter-ions that a name gives are not always drawn.

Row | melting point [°C] | Structure (SMILES)
1 | 105 to 117.5 | Cc1csc(-c2nc(CCCCC(=O)Nc3ccccc3)[nH]c2-c2ccc3ncsc3c2)n1 (as salt: HCl) [Compound 172]
2 | 174 to 175 | C=CCOC(=O)NCc1nc(-c2nc(C)cs2)c(-c2ccc3ncsc3c2)[nH]1 (as salt: HCl) [Compound 192]
3 | 119 to 124 | CCN(CC)C(=O)OCc1nc(-c2nc(C)cs2)c(-c2ccc3ncsc3c2)[nH]1 (as salt: HCl) [Compound 237]
4 | 212.5 to 213.5 | CCC(C)(C)C(=O)NCc1nc(-c2nc(C)cs2)c(-c2ccc3ncsc3c2)[nH]1 [Compound 111]
5 | 156.5 to 161 | Cc1csc(-c2nc(CNC(=O)C3CCCC3)[nH]c2-c2ccc3ncsc3c2)n1 [Compound 112]
6 | 211.5 to 212.5 | Cc1csc(-c2nc(CNC(=O)CN(C)C)[nH]c2-c2ccc3ncsc3c2)n1 [Compound 114]
7 | 150 to 150.5 | Cc1csc(-c2nc(CNC(=O)CCN(C)C)[nH]c2-c2ccc3ncsc3c2)n1 [Compound 115]
8 | 200.5 to 205.5 | Cc1csc(-c2nc(CNC(=O)CCCN(C)C)[nH]c2-c2ccc3ncsc3c2)n1 [Compound 116]
9 | 204 to 205.5 | Cc1csc(-c2nc(CNC(=O)C3CCN(C)CC3)[nH]c2-c2ccc3ncsc3c2)n1 [Compound 117]
10 | 200.5 to 203.5 | CNCC(=O)NCc1nc(-c2nc(C)cs2)c(-c2ccc3ncsc3c2)[nH]1 [Compound 118]
11 | 214.5 to 215 | Cc1csc(-c2nc(CNC(=O)CN)[nH]c2-c2ccc3ncsc3c2)n1 [Compound 120]
12 | 215 to 218.5 | Cc1csc(-c2nc(CNC(=O)CCO)[nH]c2-c2ccc3ncsc3c2)n1 [Compound 122]
13 | 134 to 135.5 | COCCOCC(=O)NCc1nc(-c2nc(C)cs2)c(-c2ccc3ncsc3c2)[nH]1 [Compound 123]
14 | 186.5 to 190 | COCCCC(=O)NCc1nc(-c2nc(C)cs2)c(-c2ccc3ncsc3c2)[nH]1 [Compound 125]
15 | 193 to 194 | Cc1csc(-c2nc(CNC(=O)COCCO)[nH]c2-c2ccc3ncsc3c2)n1 [Compound 126]
16 | 154.5 to 155.5 | COCCC(=O)NCc1nc(-c2nc(C)cs2)c(-c2ccc3ncsc3c2)[nH]1 [Compound 127]
17 | 174 to 175 | Cc1csc(-c2nc(CNC(=O)C3CCOC3)[nH]c2-c2ccc3ncsc3c2)n1 (stereo not drawn) [Compound 128]
18 | 185 to 185.5 | Cc1csc(-c2nc(CNC(=O)C3CCCO3)[nH]c2-c2ccc3ncsc3c2)n1 (stereo not drawn) [Compound 130]
19 | 209.5 to 212.5 | CCCCNC(=O)c1nc(-c2nc(C)cs2)c(-c2ccc3ncsc3c2)[nH]1 [Compound 140]
20 | 168.5 to 170.5 | COC(=O)CCc1nc(-c2nc(C)cs2)c(-c2ccc3ncsc3c2)[nH]1 [Compound 142]
21 | 217.5 to 218 | Cc1csc(-c2nc(CCC(=O)NC(C)C)[nH]c2-c2ccc3ncsc3c2)n1 [Compound 145]

Row | melting point [°C] | Structure (SMILES)
22 | 196.5 to 197 | Cc1csc(-c2nc(CCC(=O)NC3CC3)[nH]c2-c2ccc3ncsc3c2)n1 [Compound 146]
23 | 201.5 to 202 | Cc1csc(-c2nc(CCC(=O)NC(C)(C)C)[nH]c2-c2ccc3ncsc3c2)n1 [Compound 147]
24 | 179 to 180 | Cc1csc(-c2nc(CCC(=O)N3CCCCC3)[nH]c2-c2ccc3ncsc3c2)n1 [Compound 148]
25 | 163.5 to 164 | Cc1csc(-c2nc(CCC(=O)NCCN(C)C)[nH]c2-c2ccc3ncsc3c2)n1 [Compound 149]
26 | 78.5 to 82.5 | Cc1csc(-c2nc(CCC(=O)NCCCN(C)C)[nH]c2-c2ccc3ncsc3c2)n1 [Compound 150]
27 | 114 to 119 | Cc1csc(-c2nc(CCC(=O)NCCN3CCCCC3)[nH]c2-c2ccc3ncsc3c2)n1 [Compound 151]
28 | 171 to 173 | Cc1csc(-c2nc(CCC(=O)NCCN3CCCC3)[nH]c2-c2ccc3ncsc3c2)n1 [Compound 152]
29 | 188 to 189 | Cc1csc(-c2nc(CCC(=O)NCCCN3CCN(C)CC3)[nH]c2-c2ccc3ncsc3c2)n1 [Compound 153]
30 | 201 to 201.5 | Cc1csc(-c2nc(CCC(=O)N3CCN(C)CC3)[nH]c2-c2ccc3ncsc3c2)n1 [Compound 155]
31 | 164.5 to 166 | Cc1csc(-c2nc(CCC(=O)N3CCN(CCN4CCOCC4)CC3)[nH]c2-c2ccc3ncsc3c2)n1 [Compound 157]
32 | 169.5 to 172 | Cc1csc(-c2nc(CCC(=O)N3CCN(CCN(C)C)CC3)[nH]c2-c2ccc3ncsc3c2)n1 [Compound 158]
33 | 216.5 to 218 | Cc1csc(-c2nc(CCC(=O)N3CCOCC3)[nH]c2-c2ccc3c(c2)OCO3)n1 [Compound 161]
34 | 144.5 to 145 | COCCCNC(=O)CCc1nc(-c2nc(C)cs2)c(-c2ccc3ncsc3c2)[nH]1 [Compound 164]
35 | 140 to 140.5 | COc1ccc(CNC(=O)CCCCc2nc(-c3nc(C)cs3)c(-c3ccc4ncsc4c3)[nH]2)cc1 [Compound 173]
36 | 179.5 to 182 | CCCNC(=O)NCc1nc(-c2nc(C)cs2)c(-c2ccc3ncsc3c2)[nH]1 [Compound 177]
37 | 178.5 to 180 | Cc1csc(-c2nc(CNC(=O)NC(C)C)[nH]c2-c2ccc3ncsc3c2)n1 [Compound 178]
38 | 190.5 to 191.5 | CCCCNC(=O)NCc1nc(-c2nc(C)cs2)c(-c2ccc3ncsc3c2)[nH]1 [Compound 179]
39 | 222.5 to 223 | CCN(CC)C(=O)NCc1nc(-c2nc(C)cs2)c(-c2ccc3ncsc3c2)[nH]1 [Compound 181]
40 | 199 to 201 | CCCCCNC(=O)NCc1nc(-c2nc(C)cs2)c(-c2ccc3ncsc3c2)[nH]1 [Compound 182]
41 | 185.5 to 188 | Cc1csc(-c2nc(CNC(=O)NC3CCCC3)[nH]c2-c2ccc3ncsc3c2)n1 [Compound 183]

The remaining lines, values behind:

Row | Structure (SMILES) | melting point [°C]
42 | CCC(CC)c1nc(-c2nc(C)cs2)c(-c2ccc3ncsc3c2)[nH]1 (as salt: HCl) [Compound 62] | 207 to 212
43 | Cc1csc(-c2nc(CCCN3CCOCC3)[nH]c2-c2ccc3c(c2)OCO3)n1 (as salt: salt) [Compound 76] | 118.5 to 128.5
44 | NC(=O)c1ccc(-c2nc(-c3nccs3)c(-c3ccc4c(c3)OCO4)[nH]2)cc1 [Compound 2] | 240 to 249
45 | NC(=O)c1ccc(-c2nc(-c3nccs3)c(-c3ccccn3)[nH]2)cc1 [Compound 4] | 255.5 to 256
46 | CC(O)c1nc(-c2nc(-c3ccc(C(N)=O)cc3)[nH]c2-c2ccc3c(c2)OCO3)cs1 (stereo not drawn) [Compound 6] | 140 to 148
47 | CC(=O)c1nc(-c2nc(-c3ccc(C(N)=O)cc3)[nH]c2-c2ccc3c(c2)OCO3)cs1 [Compound 7] | 153 to 159
48 | CCc1csc(-c2nc(-c3ccc(C(N)=O)cc3)[nH]c2-c2ccc3c(c2)OCO3)n1 [Compound 11] | 259.5 to 261.5
49 | NC(=O)c1ccc(-c2nc(-c3nc(Br)cs3)c(-c3ccc4c(c3)OCO4)[nH]2)cc1 [Compound 13] | 273 to 275.5
50 | Cc1csc(-c2nc(-c3ccc(C#N)cc3)[nH]c2-c2ccc(F)cc2)n1 [Compound 17] | 283.5 to 286
51 | Cc1csc(-c2nc(-c3ccc(C(N)=O)cc3)[nH]c2-c2ccc(F)cc2)n1 [Compound 18] | 281 to 281.5
52 | Cc1csc(-c2nc(N)[nH]c2-c2ccc3c(c2)OCO3)n1 [Compound 19] | 205.5 to 208
53 | CC(=O)Nc1nc(-c2nc(C)cs2)c(-c2ccc3c(c2)OCO3)[nH]1 [Compound 20] | 169 to 173
54 | Cc1csc(-c2nc(NC(=O)c3ccccc3)[nH]c2-c2ccc3c(c2)OCO3)n1 [Compound 22] | 223 to 225
55 | COc1ccc(CC(=O)NCc2nc(-c3nc(C)cs3)c(-c3ccc4c(c3)OCO4)[nH]2)cc1 [Compound 26] | 165.5 to 169.5
56 | Cc1csc(-c2nc(CCN)[nH]c2-c2ccc3c(c2)OCO3)n1 [Compound 27] | 155.5 to 157.5
57 | CCCC(=O)NCCc1nc(-c2nc(C)cs2)c(-c2ccc3c(c2)OCO3)[nH]1 [Compound 28] | 148 to 150

Row | Structure (SMILES) | melting point [°C]
58 | CCCC(=O)NCCCc1nc(-c2nc(C)cs2)c(-c2ccc3c(c2)OCO3)[nH]1 [Compound 30] | 134.5 to 138.5
59 | CCCC(=O)NCCCCc1nc(-c2nc(C)cs2)c(-c2ccc3c(c2)OCO3)[nH]1 [Compound 33] | 132 to 133
60 | CCCNC(=O)c1nc(-c2nc(C)cs2)c(-c2ccc3c(c2)OCO3)[nH]1 [Compound 35] | 199.6 to 200
61 | Cc1csc(-c2nc(C(=O)Nc3ccccc3)[nH]c2-c2ccc3c(c2)OCO3)n1 [Compound 36] | 222 to 222.5
62 | CCCNC(=O)CCc1nc(-c2nc(C)cs2)c(-c2ccc3c(c2)OCO3)[nH]1 [Compound 38] | 106.5 to 108.5
63 | CCCNC(=O)CCCc1nc(-c2nc(C)cs2)c(-c2ccc3c(c2)OCO3)[nH]1 [Compound 40] | 75 to 79
64 | COc1ccc(CNC(=O)CCCCc2nc(-c3nc(C)cs3)c(-c3ccc4c(c3)OCO4)[nH]2)cc1 [Compound 44] | 174 to 175
65 | Cc1csc(-c2nc(-c3ccc(C(N)=O)cc3)[nH]c2-c2ccc(O)cc2)n1 [Compound 49] | > 300
66 | CCCCCCc1nc(-c2nc(C)cs2)c(-c2ccc3ncsc3c2)[nH]1 [Compound 64] | 129 to 130.5
67 | CCCC(=O)NCc1nc(-c2nc(C)cs2)c(-c2ccc(O)cc2)[nH]1 [Compound 101] | 135.5 to 136.5
68 | CCCC(=O)NCc1nc(-c2nc(C)cs2)c(-c2ccc(OC)c(OCc3ccccc3)c2)[nH]1 [Compound 104] | 176 to 177
69 | Cc1csc(-c2nc(CNC(=O)CC(C)C)[nH]c2-c2ccc3ncsc3c2)n1 [Compound 107] | 160 to 160.5
70 | Cc1csc(-c2nc(CNC(=O)C3CCC3)[nH]c2-c2ccc3ncsc3c2)n1 [Compound 108] | 199 to 200
71 | Cc1csc(-c2nc(CNC(=O)C(C)(C)C)[nH]c2-c2ccc3ncsc3c2)n1 [Compound 109] | 229 to 229.5
72 | Cc1csc(-c2nc(CNC(=O)CCC(C)C)[nH]c2-c2ccc3ncsc3c2)n1 [Compound 110] | 172.5 to 173.5
